Source: PubChem BioAssay AID330 (DTP/NCI, 2004)
Several values for one entry are separate records, joined by “and”; a condition that tells them apart may be missing. Identical values can stand only once. Toxic doses and inconclusive results are not listed. Peptide text beside a SMILES is read from it. * marks the point of attachment. Boc = CC(C)(C)OC(=O)*; NHNH2 = NN*

Test system: P388 leukemia ip, CD2F1 mice, survival T/C
Experiment: NCI In Vivo Anticancer Drug Screen. Data for tumor model P388 Leukemia (intraperitoneal) in CD2F1 (CDF1) mice
Conditions: endpoint: median survival time, higher = longer survival
In short: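 Mice carrying the transplanted tumor received test compound or vehicle. Survival was recorded in each group, and the value is the treated-group measurement divided by that of the vehicle-treated control group.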

[1] = dose: 25.0 mg/kg/injection, schedule: Q01DX009 (ip), vehicle: saline with Tween-80
[2] = dose: 50.0 mg/kg/injection, schedule: Q01DX009 (ip), vehicle: saline with Tween-80
[3] = dose: 100.0 mg/kg/injection, schedule: Q01DX009 (ip), vehicle: saline with Tween-80
[4] = dose: 60.0 mg/kg/injection, schedule: Q01DX005 (ip), vehicle: saline with Tween-80
[5] = dose: 120.0 mg/kg/injection, schedule: Q01DX005 (ip), vehicle: saline with Tween-80
[6] = dose: 100.0 mg/kg/injection, schedule: Q04DX002 (ip), vehicle: saline with Tween-80
[7] = dose: 200.0 mg/kg/injection, schedule: Q04DX002 (ip), vehicle: saline with Tween-80
[8] = dose: 100.0 mg/kg/injection, schedule: Q04DX003 (ip), vehicle: Klucel (hydroxypropylcellulose) (HPC)
[9] = dose: 200.0 mg/kg/injection, schedule: Q04DX003 (ip), vehicle: Klucel (hydroxypropylcellulose) (HPC)
[10] = dose: 240.0 mg/kg/injection, schedule: Q01DX005 (ip), vehicle: saline with Tween-80
[11] = dose: 50.0 mg/kg/injection, schedule: Q01DX005 (ip), vehicle: saline with Tween-80
[12] = dose: 100.0 mg/kg/injection, schedule: Q01DX005 (ip), vehicle: saline with Tween-80
[13] = dose: 200.0 mg/kg/injection, schedule: Q01DX005 (ip), vehicle: saline with Tween-80

SMILES: COc1ccc(OC)c2c(=O)cc(C)[nH]c12
- T/C (dose: 16.5 mg/kg/injection, schedule: Q01DX009 (ip), vehicle: saline with Tween-80): 107 % of control and 112 % of control
- T/C [1]: 107 % of control and 111 % of control and 121 % of control
- T/C (dose: 37.5 mg/kg/injection, schedule: Q01DX009 (ip), vehicle: saline with Tween-80): 113 % of control and 124 % of control
- T/C [2]: 114 % of control
- T/C [3]: 107 % of control
- T/C (dose: 200.0 mg/kg/injection, schedule: Q01DX009 (ip), vehicle: saline with Tween-80): 107 % of control

SMILES: CCC1(c2ccc(C)cc2)C(=O)NC(=S)NC1=O
- T/C [4]: 102 % of control
- T/C [5]: 94 % of control

SMILES: COc1ccc(C2c3cc4c(cc3OC(O)C2C)OCO4)c(OC)c1 (stereo not given)
- T/C [6]: 97 % of control
- T/C [7]: 97 % of control
- T/C (dose: 400.0 mg/kg/injection, schedule: Q04DX002 (ip), vehicle: saline with Tween-80): 95 % of control

SMILES: CC1OC(C)(C2CC2)OC1C (stereo not given)
- T/C [8]: 95 % of control
- T/C [9]: 100 % of control

SMILES: CCN(CC)c1c(C)nnc2c3c(-c4ccccc4)c(-c4ccccc4)nnc3nn12
- T/C (dose: 50.0 mg/kg/injection, schedule: Q04DX003 (ip), vehicle: saline with Tween-80): 86 % of control
- T/C (dose: 200.0 mg/kg/injection, schedule: Q04DX003 (ip), vehicle: saline with Tween-80): 86 % of control
- T/C (dose: 400.0 mg/kg/injection, schedule: Q04DX003 (ip), vehicle: saline with Tween-80): 91 % of control

SMILES: CCNC1=C(C(=O)OCC)C(=O)CO1
- T/C [4]: 100 % of control
- T/C [5]: 100 % of control
- T/C [10]: 99 % of control

SMILES: c1ccc(-n2ncc3ccc4cccn4c32)cc1
- T/C [4]: 108 % of control
- T/C [5]: 111 % of control
- T/C [10]: 120 % of control

SMILES: COC1NC(=S)N(C(C)(C)C)C1(C)C (stereo not given)
- T/C (dose: 12.5 mg/kg/injection, schedule: Q01DX009 (ip), vehicle: saline): 99 % of control
- T/C (dose: 25.0 mg/kg/injection, schedule: Q01DX009 (ip), vehicle: saline): 100 % of control
- T/C (dose: 50.0 mg/kg/injection, schedule: Q01DX009 (ip), vehicle: saline): 107 % of control
- T/C (dose: 50.0 mg/kg/injection, schedule: Q01DX009 (ip), vehicle: suspension in saline): 97 % of control

SMILES: FC(F)(F)c1nn2c(-c3cnns3)nnc2s1
- T/C (dose: 100.0 mg/kg/injection, schedule: Q01DX001 (ip), vehicle: Klucel (hydroxypropylcellulose) (HPC)): 98 % of control
- T/C (dose: 200.0 mg/kg/injection, schedule: Q01DX001 (ip), vehicle: Klucel (hydroxypropylcellulose) (HPC)): 99 % of control
- T/C (dose: 400.0 mg/kg/injection, schedule: Q01DX001 (ip), vehicle: Klucel (hydroxypropylcellulose) (HPC)): 104 % of control

SMILES: CN1CC(=O)NC2C=CN(Cc3c(Cl)cccc3Cl)C=C2C1=O (stereo not given)
- T/C [4]: 89 % of control and 90 % of control
- T/C [5]: 88 % of control
- T/C [10]: 87 % of control and 90 % of control

SMILES: O=c1[nH]c2cc(Cl)ccc2nc1/C=C(\O)c1ccco1
- T/C [4]: 102 % of control
- T/C [5]: 94 % of control
- T/C [10]: 102 % of control

SMILES: Cc1c(O)/c(=C\O)c2nc3c(=O)ccc(C(=O)NCCN(C)C)c3[nH]c2c1=O
- T/C (dose: 6.25 mg/kg/injection, schedule: Q01DX005 (ip), vehicle: other): 117 % of control
- T/C (dose: 7.5 mg/kg/injection, schedule: Q03HX015 (ip), vehicle: water): 160 % of control
- T/C (dose: 12.5 mg/kg/injection, schedule: Q01DX005 (ip), vehicle: other): 120 % of control
- T/C (dose: 15.0 mg/kg/injection, schedule: Q03HX015 (ip), vehicle: water): 177 % of control
- T/C (dose: 50.0 mg/kg/injection, schedule: Q01DX005 (ip), vehicle: other): 123 % of control

SMILES: CCN(CC)CCN1C(=O)c2cccc3cc([N+](=O)[O-])cc(c23)C1=O
- T/C (dose: 12.5 mg/kg/injection, schedule: Q01DX005 (ip), vehicle: Klucel (hydroxypropylcellulose) (HPC)): 107 % of control
- T/C (dose: 25.0 mg/kg/injection, schedule: Q01DX005 (ip), vehicle: Klucel (hydroxypropylcellulose) (HPC)): 124 % of control
- T/C (dose: 50.0 mg/kg/injection, schedule: Q01DX005 (ip), vehicle: Klucel (hydroxypropylcellulose) (HPC)): 156 % of control
- T/C (dose: 100.0 mg/kg/injection, schedule: Q01DX005 (ip), vehicle: Klucel (hydroxypropylcellulose) (HPC)): 195 % of control

SMILES: C/C(=N\NC(N)=S)c1ccc2c(c1)Cc1cc(/C(C)=N/NC(N)=S)ccc1-2
- T/C (dose: 25.0 mg/kg/injection, schedule: Q04DX002 (ip), vehicle: saline with Tween-80): 99 % of control
- T/C (dose: 50.0 mg/kg/injection, schedule: Q04DX002 (ip), vehicle: saline with Tween-80): 92 % of control
- T/C [6]: 93 % of control
- T/C [7]: 95 % of control

SMILES: OC1COC(c2nn(-c3ccccc3)c3nc4ccccc4nc23)C1O (stereo not given)
- T/C [11]: 87 % of control
- T/C [12]: 87 % of control
- T/C [13]: 87 % of control

SMILES: CCCCCCCCCCCCOCC[N+](CCO)(CCO)Cc1ccccc1
- T/C (dose: 0.25 mg/kg/injection, schedule: Q01DX009 (ip), vehicle: saline): 100 % of control
- T/C (dose: 0.5 mg/kg/injection, schedule: Q01DX009 (ip), vehicle: saline): 100 % of control
- T/C (dose: 1.0 mg/kg/injection, schedule: Q01DX009 (ip), vehicle: saline): 100 % of control

SMILES: CCCOC(=O)c1nc(N(CC2CCCCC2)C(=O)NC)sc1/N=C/c1ccccc1
- T/C [1]: 98 % of control
- T/C [2]: 94 % of control
- T/C [3]: 87 % of control

SMILES: CC(C)(C)OC(=O)NC(Cc1c[nH]c2ccccc12)C(=O)NC(Cc1c[nH]c2ccccc12)C(=O)NN (stereo not drawn) (Boc-Trp-Trp-NHNH2; configuration not given here)
- T/C (dose: 12.5 mg/kg/injection, schedule: Q01DX009 (ip), vehicle: other): 94 % of control
- T/C (dose: 25.0 mg/kg/injection, schedule: Q01DX009 (ip), vehicle: other): 94 % of control
- T/C (dose: 50.0 mg/kg/injection, schedule: Q01DX009 (ip), vehicle: other): 91 % of control
- T/C (dose: 100.0 mg/kg/injection, schedule: Q01DX009 (ip), vehicle: other): 91 % of control
- T/C (dose: 200.0 mg/kg/injection, schedule: Q01DX009 (ip), vehicle: other): 107 % of control

SMILES: CC1(C)NCCc2c1[nH]c1ccccc21
- T/C (dose: 50.0 mg/kg/injection, schedule: Q04DX002 (ip), vehicle: suspension in saline): 100 % of control
- T/C (dose: 100.0 mg/kg/injection, schedule: Q04DX002 (ip), vehicle: suspension in saline): 100 % of control
- T/C (dose: 200.0 mg/kg/injection, schedule: Q04DX002 (ip), vehicle: suspension in saline): 100 % of control

SMILES: NC(=O)NN(Cc1cccc(Cl)c1)N=O
- T/C [8]: 95 % of control
- T/C [9]: 94 % of control
- T/C (dose: 400.0 mg/kg/injection, schedule: Q04DX003 (ip), vehicle: Klucel (hydroxypropylcellulose) (HPC)): 98 % of control

SMILES: CC(C)CCCCCCCCCCCCC(O)CC(=O)O (stereo not given)
- T/C (dose: 8.75 mg/kg/injection, schedule: Q01DX005 (ip), vehicle: Klucel + Tween-80): 92 % of control
- T/C (dose: 17.5 mg/kg/injection, schedule: Q01DX005 (ip), vehicle: Klucel + Tween-80): 86 % of control
- T/C (dose: 35.0 mg/kg/injection, schedule: Q01DX005 (ip), vehicle: Klucel + Tween-80): 95 % of control

SMILES: CCCCCCCCCCCCCCCC(=O)OC12CC(C)C3(O)C(C=C(CO)CC4(O)C(=O)C(C)=CC43)C1C2(C)CO (stereo not given)
- T/C (dose: 0.03 mg/kg/injection, schedule: Q01DX009 (ip), vehicle: saline with Tween-80): 119 % of control
- T/C (dose: 0.06 mg/kg/injection, schedule: Q01DX009 (ip), vehicle: saline with Tween-80): 100 % of control
- T/C (dose: 0.9 micrograms/kg/injection, schedule: Q01DX009 (ip), vehicle: other): 100 % of control
- T/C (dose: 1.8 micrograms/kg/injection, schedule: Q01DX009 (ip), vehicle: other): 99 % of control
- T/C (dose: 3.7 micrograms/kg/injection, schedule: Q01DX009 (ip), vehicle: other): 101 % of control
- T/C (dose: 7.5 micrograms/kg/injection, schedule: Q01DX009 (ip), vehicle: other): 101 % of control
- T/C (dose: 15.0 micrograms/kg/injection, schedule: Q01DX009 (ip), vehicle: other): 104 % of control
- T/C (dose: 30.0 micrograms/kg/injection, schedule: Q01DX009 (ip), vehicle: other): 104 % of control

SMILES: Cc1ccc(S(=O)(=O)Nn2nnc(-c3ccccc3)n2)cc1
- T/C (dose: 50.0 mg/kg/injection, schedule: Q04DX003 (ip), vehicle: Klucel (hydroxypropylcellulose) (HPC)): 98 % of control
- T/C [8]: 102 % of control
- T/C [9]: 102 % of control

SMILES: COc1cc(OC)c(C2CC(C)(OC)Oc3cc4c(cc32)OCO4)c(OC)c1 (stereo not given)
- T/C [11]: 103 % of control
- T/C [12]: 97 % of control
- T/C [13]: 90 % of control
